Results as given in patent publication US8192962B2, “Processes for detecting toxic substances” (Daikin Industries, Ltd., priority 2001, dated 2012).

Test system: Metabolism protein genes
Test: DNA chip mRNA expression in yeast, metabolism protein genes (Table 7)
Format: cell-based, Saccharomyces cerevisiae S288C
Method: Yeast (Saccharomyces cerevisiae S288C (α SUC2mal mel gap2 CUP1)) were incubated at 25° C. on YPD medium (yeast extract 1%, polypepton 2%, glucose 2%). One of toxic chemical substances was added to the cells at logarithmic growth phase, and the cells were further incubated for two hours. Cells were cultured without any chemical substance in the same condition, and were used as control. Concentrations of the chemical substances were defined to inhibit the growth of the yeast but not lead to death.
After completion of the incubation, the culture was centrifuged to collect the cells. To the cells, sodium acetate buffer (50 mM sodium acetate, 10 mM EDTA, 1% SDS) was added, and the mixture was shaken at 65° C. for five minutes, followed by returning to room temperature, and obtaining the supernatant, of which the procedures were repeated two times. To the supernatant, ½ amount of a solution of phenol/chloroform was added, and the mixture was centrifuged to give a supernatant, which was added with an equal amount of chloroform, and the mixture was centrifuged to give a supernatant. To the supernatant, an equal amount of isopropanol containing 0.3 M sodium acetate was added, and the mixture was allowed to stand at room temperature for 30 minutes, after which the mixture was centrifuged to give a sediment of the whole RNAs. Seventy % ethanol was added to the sediment, and the mixture was again centrifuged to give a sediment, which was then dried and dissolved in water. mRNA was isolated from the whole RNAs as followings. In view of the fact that a poly A chain is attached to the 3′ terminus of mRNA, a polynucleotide having a poly T structure which was immobilized on the surface of latex beads was used to trap the mRNA, and then the mRNA was washed and eluted with spine column (Oligotex-dT30<Super>mRNA Purification Kit, Takara). Reverse transcription of the mRNA was conducted with a reverse transcriptase (Super Script II Reverse Transcriptase; catalogue No. 18064-014, GibcoBRL) using fluorescence-labeled nucleotides to give cDNAs that were introduced with Cy3-dUTP or Cy5-dUTP during the reverse transcription.
The labeled cDNAs were dissolved in TE buffer (10mM Tris-HCl/1 mM EDTA, pH8.0), and the solution was dropped on the DNA chip containing the whole genes of yeast (DNA Chip Research Inc. Japan) so that the cDNAs were hybridized on the DNA chip at 65° C. for over 12 hours. The fluoresces intensity of the DNA chip was read with a scanner, and the ratio relative to the fluorescence intensity resulting from the absence of chemical substance was estimated as the following, which is shown in Tables 1 to 9: […]

## C[S+](C)[O-] [(15), dimethylsulfoxide]
Yeast gene YJL099W
  The level of expressed mRNA in the presence of chemical substance/The level of expressed mRNA in the absence of chemical substance: 1.4
Yeast gene YJL121C
  level of expressed mRNA in the presence/in the absence of chemical substance: 1.0
Yeast gene YJL167W
  level of expressed mRNA in the presence/in the absence of chemical substance: 1.6
Yeast gene YJL172W
  The level of expressed mRNA in the presence of chemical substance/The level of expressed mRNA in the absence of chemical substance: 1.2
Yeast gene YJL216C
  level of expressed mRNA in the presence/in the absence of chemical substance: 1.2
Yeast gene YJR077C
  level of expressed mRNA in the presence/in the absence of chemical substance: 1.5
Yeast gene YJR137C
  The level of expressed mRNA in the presence of chemical substance/The level of expressed mRNA in the absence of chemical substance: 1.0
Yeast gene YJR143C
  level of expressed mRNA in the presence/in the absence of chemical substance: 1.1
Yeast gene YKL035W
  The level of expressed mRNA in the presence of chemical substance/The level of expressed mRNA in the absence of chemical substance: 1.0
Yeast gene YKL060C
  level of expressed mRNA in the presence/in the absence of chemical substance: 1.6
Yeast gene YKL091C
  The level of expressed mRNA in the presence of chemical substance/The level of expressed mRNA in the absence of chemical substance: 1.1
Yeast gene YKL104C
  The level of expressed mRNA in the presence of chemical substance/The level of expressed mRNA in the absence of chemical substance: 3.3
Yeast gene YKL148C
  level of expressed mRNA in the presence/in the absence of chemical substance: 0.6
Yeast gene YKL152C
  The level of expressed mRNA in the presence of chemical substance/The level of expressed mRNA in the absence of chemical substance: 1.8
Yeast gene YKL157W
  level of expressed mRNA in the presence/in the absence of chemical substance: 1.2
Yeast gene YKL213C
  The level of expressed mRNA in the presence of chemical substance/The level of expressed mRNA in the absence of chemical substance: 1.1
Yeast gene YKL215C
  The level of expressed mRNA in the presence of chemical substance/The level of expressed mRNA in the absence of chemical substance: 0.9
Yeast gene YKR034W
  level of expressed mRNA in the presence/in the absence of chemical substance: 1.7
Yeast gene YLR006C
  level of expressed mRNA in the presence/in the absence of chemical substance: 0.9
Yeast gene YLR044C
  level of expressed mRNA in the presence/in the absence of chemical substance: 2.2
Yeast gene YLR056W
  level of expressed mRNA in the presence/in the absence of chemical substance: 0.9
Yeast gene YLR058C
  level of expressed mRNA in the presence/in the absence of chemical substance: 1.5
Yeast gene YLR081W
  level of expressed mRNA in the presence/in the absence of chemical substance: 0.7
Yeast gene YLR089C
  level of expressed mRNA in the presence/in the absence of chemical substance: 1.7
Yeast gene YLR180W
  The level of expressed mRNA in the presence of chemical substance/The level of expressed mRNA in the absence of chemical substance: 2.5
Yeast gene YLR284C
  level of expressed mRNA in the presence/in the absence of chemical substance: 1.0
Yeast gene YLR299W
  The level of expressed mRNA in the presence of chemical substance/The level of expressed mRNA in the absence of chemical substance: 1.5
Yeast gene YLR300W
  The level of expressed mRNA in the presence of chemical substance/The level of expressed mRNA in the absence of chemical substance: 2.7
Yeast gene YLR304C
  level of expressed mRNA in the presence/in the absence of chemical substance: 1.6
Yeast gene YLR307W
  The level of expressed mRNA in the presence of chemical substance/The level of expressed mRNA in the absence of chemical substance: 3.9
Yeast gene YLR348C
  The level of expressed mRNA in the presence of chemical substance/The level of expressed mRNA in the absence of chemical substance: 2.4
Yeast gene YLR354C
  level of expressed mRNA in the presence/in the absence of chemical substance: 2.4
Yeast gene YLR372W
  level of expressed mRNA in the presence/in the absence of chemical substance: 0.7
Yeast gene YML022W
  level of expressed mRNA in the presence/in the absence of chemical substance: 0.6
Yeast gene YML054C
  The level of expressed mRNA in the presence of chemical substance/The level of expressed mRNA in the absence of chemical substance: 1.1
Yeast gene YML070W
  The level of expressed mRNA in the presence of chemical substance/The level of expressed mRNA in the absence of chemical substance: 0.9
Yeast gene YMR011W
  level of expressed mRNA in the presence/in the absence of chemical substance: 0.6
Yeast gene YMR015C
  level of expressed mRNA in the presence/in the absence of chemical substance: 1.2
Yeast gene YMR083W
  level of expressed mRNA in the presence/in the absence of chemical substance: 1.3
Yeast gene YMR105C
  The level of expressed mRNA in the presence of chemical substance/The level of expressed mRNA in the absence of chemical substance: 0.9
Yeast gene YMR189W
  The level of expressed mRNA in the presence of chemical substance/The level of expressed mRNA in the absence of chemical substance: 5.6
Yeast gene YMR205C
  level of expressed mRNA in the presence/in the absence of chemical substance: 0.9
Yeast gene YMR261C
  level of expressed mRNA in the presence/in the absence of chemical substance: 0.8
Yeast gene YMR271C
  The level of expressed mRNA in the presence of chemical substance/The level of expressed mRNA in the absence of chemical substance: 0.6
Yeast gene YMR296C
  The level of expressed mRNA in the presence of chemical substance/The level of expressed mRNA in the absence of chemical substance: 6.7
Yeast gene YMR323W
  level of expressed mRNA in the presence/in the absence of chemical substance: 37.3
Yeast gene YNL012W
  The level of expressed mRNA in the presence of chemical substance/The level of expressed mRNA in the absence of chemical substance: 1.6
Yeast gene YNL025C
  level of expressed mRNA in the presence/in the absence of chemical substance: 1.4
Yeast gene YNL037C
  The level of expressed mRNA in the presence of chemical substance/The level of expressed mRNA in the absence of chemical substance: 0.9
Yeast gene YNL045W
  The level of expressed mRNA in the presence of chemical substance/The level of expressed mRNA in the absence of chemical substance: 0.8
Yeast gene YNL104C
  The level of expressed mRNA in the presence of chemical substance/The level of expressed mRNA in the absence of chemical substance: 2.5
Yeast gene YNL106C
  The level of expressed mRNA in the presence of chemical substance/The level of expressed mRNA in the absence of chemical substance: 3.3
Yeast gene YNL192W
  level of expressed mRNA in the presence/in the absence of chemical substance: 2.1
Yeast gene YNL231C
  The level of expressed mRNA in the presence of chemical substance/The level of expressed mRNA in the absence of chemical substance: 0.9
Yeast gene YNL331C
  The level of expressed mRNA in the presence of chemical substance/The level of expressed mRNA in the absence of chemical substance: 2.3
Yeast gene YNL332W
  The level of expressed mRNA in the presence of chemical substance/The level of expressed mRNA in the absence of chemical substance: 5.4
Yeast gene YNR002C
  The level of expressed mRNA in the presence of chemical substance/The level of expressed mRNA in the absence of chemical substance: 1.0
Yeast gene YNR019W
  The level of expressed mRNA in the presence of chemical substance/The level of expressed mRNA in the absence of chemical substance: 1.6
Yeast gene YNR033W
  The level of expressed mRNA in the presence of chemical substance/The level of expressed mRNA in the absence of chemical substance: 1.3
Yeast gene YNR059W
  The level of expressed mRNA in the presence of chemical substance/The level of expressed mRNA in the absence of chemical substance: 1.0
Yeast gene YOL058W
  The level of expressed mRNA in the presence of chemical substance/The level of expressed mRNA in the absence of chemical substance: 2.7
Yeast gene YOL086C
  level of expressed mRNA in the presence/in the absence of chemical substance: 1.6
Yeast gene YOL108C
  level of expressed mRNA in the presence/in the absence of chemical substance: 1.5
Yeast gene YOL116W
  level of expressed mRNA in the presence/in the absence of chemical substance: 0.7
Yeast gene YOL126C
  The level of expressed mRNA in the presence of chemical substance/The level of expressed mRNA in the absence of chemical substance: 1.4
Yeast gene YOL143C
  The level of expressed mRNA in the presence of chemical substance/The level of expressed mRNA in the absence of chemical substance: 1.0
Yeast gene YOL153C
  The level of expressed mRNA in the presence of chemical substance/The level of expressed mRNA in the absence of chemical substance: 1.2
Yeast gene YOL156W
  level of expressed mRNA in the presence/in the absence of chemical substance: 1.9
Yeast gene YOR002W
  level of expressed mRNA in the presence/in the absence of chemical substance: 1.5
Yeast gene YOR085W
  level of expressed mRNA in the presence/in the absence of chemical substance: 1.8
Yeast gene YOR103C
  level of expressed mRNA in the presence/in the absence of chemical substance: 1.4
Yeast gene YOR108W
  level of expressed mRNA in the presence/in the absence of chemical substance: 0.7
Yeast gene YOR128C
  level of expressed mRNA in the presence/in the absence of chemical substance: 1.6
Yeast gene YOR130C
  The level of expressed mRNA in the presence of chemical substance/The level of expressed mRNA in the absence of chemical substance: 1.0
Yeast gene YOR136W
  The level of expressed mRNA in the presence of chemical substance/The level of expressed mRNA in the absence of chemical substance: 1.2
Yeast gene YOR142W
  level of expressed mRNA in the presence/in the absence of chemical substance: 1.1
Yeast gene YOR176W
  level of expressed mRNA in the presence/in the absence of chemical substance: 0.8
Yeast gene YOR178C
  level of expressed mRNA in the presence/in the absence of chemical substance: 1.1
Yeast gene YOR251C
  level of expressed mRNA in the presence/in the absence of chemical substance: 0.6
Yeast gene YOR336W
  The level of expressed mRNA in the presence of chemical substance/The level of expressed mRNA in the absence of chemical substance: 0.6
Yeast gene YOR348C
  level of expressed mRNA in the presence/in the absence of chemical substance: 1.6
Yeast gene YPL017C
  The level of expressed mRNA in the presence of chemical substance/The level of expressed mRNA in the absence of chemical substance: 1.0
Yeast gene YPL028W
  level of expressed mRNA in the presence/in the absence of chemical substance: 0.6
Yeast gene YPL057C
  level of expressed mRNA in the presence/in the absence of chemical substance: 1.1
Yeast gene YPL135W
  level of expressed mRNA in the presence/in the absence of chemical substance: 1.5
Yeast gene YPL148C
  level of expressed mRNA in the presence/in the absence of chemical substance: 0.6
Yeast gene YPR113W
  level of expressed mRNA in the presence/in the absence of chemical substance: 1.0
Yeast gene YPR165W
  level of expressed mRNA in the presence/in the absence of chemical substance: 0.9
Yeast gene YPR167C
  The level of expressed mRNA in the presence of chemical substance/The level of expressed mRNA in the absence of chemical substance: 0.9
Yeast gene YPR183W
  level of expressed mRNA in the presence/in the absence of chemical substance: 0.9
